From patent US4745124A, “Orally effective anti-hypertensive agents” (priority 1983, dated 1988)
Structures can show the parent of a compound that is named as a salt. Where two headings read alike, the source gives them in different places.

Tested on: pressor effects of angiotensin I
Experiment: oral effectiveness: blood pressure response to angiotensin I in anesthetized rats
Format: in vivo, rat
Details: for response vs control in vivo at 10 µmol/kg: Rattus norvegicus, oral 10 μmol/kg, Ex. 246, read-out: Blood Pressure Response to 400 ng/kg of Angiotensin I
Protocol: Rats (210-290 g body weight) were fasted overnight and then anesthetized with intraperitoneal pentobarbital, 50-60 mg/kg. Tracheostomy was performed and the animals were ventilated mechanically. A cannula was inserted into a femoral vein for injection of angiotensin I or II, and a second cannula was inserted into a common carotid artery for direct measurement of arterial blood pressure. Heparin, 1,000 units, was injected via the femoral vein to prevent coagulation. Blood pressure was measured with a pressure transducer connected to a polygraph. The rats were injected with 80 ng of angiotensin I or angiotensin II in 20 μl of 0.9 g % NaCl; an amount of antiotensin I or II sufficient to raise mean arterial blood pressure by 27-40 mm Hg. After the responsiveness of a given rat to angiotensins I and II was established, compound (I), at 2 or 5 mg/kg (drug dissolved in 0.5 ml of H2 O plus 10 μl of 1N NaHCO3), was given via a stomach tube. At timed intervals, the effects of 80 ng of angiotensin I or angiotensin II on mean arterial blood pressure were tested.
Rats were prepared as described in Example 222. Compound (II) [N-benzoyl-L-phenylalanylthiopropanoyl)-L-proline] was given orally, via a stomach tube, at a dose of 12 mg/kg or 20 mg/kg. Compound (II) was dissolved in 0.5 ml of H2 O plus 10 μl of 1N NaHCO3. In all other respects, the experimental preparations were exactly as described in Example 222.
Rats (210-290 g body weight) were fasted overnight and then anesthetized with intraperitoneal pentobarbital, 50-60 mg/kg. Tracheostomy was performed and the animals were ventilated mechanically. A cannula was inserted into a femoral vein for injection of angiotensin I or II, and a second cannula was inserted into a common carotid artery for direct measurement of arterial blood pressure. Heparin, 1,000 units, was injected via the femoral vein to prevent coagulation. Blood pressure was measured with a pressure transducer connected to a polygraph. The rats were injected with 160 ng of angiotensin I or 80 ng of angiotensin II in 20 μl of 0.9 g % NaCl; an amount of angiotensin I or II sufficient to raise mean arterial blood pressure by 27-40 mm Hg. After the responsiveness of a given rat to angiotensins I and II was established, compound (B) at 10 mg (drug dissolved in 0.5 ml of H2 O plus 10 μl of 1N NaHCO3), was given via a stomach tube. At timed intervals, the effects of 160 ng of angiotensin I or 80 ng of angiotensin II on mean arterial blood pressure were tested. Results are shown below:
Rats (210-290 g body weight) were fasted overnight and then anesthetized with intraperitoneal pentobarbital, 50-60 mg/kg. Tracheostomy was performed and the animals were ventilated mechanically. A cannula was inserted into a femoral vein for injection of angiotensin I, and a second cannula was inserted into a common carotid artery for direct measurement of arterial blood pressure. Heparin, 1,000 units, was injected via the femoral vein to prevent coagulation. Blood pressure was measured with a pressure transducer connected to a polygraph. The rats were injected with 400 ng/kg of angiotensin I in 20 μl of 0.9 g % NaCl; an amount of angiotensin I sufficient to raise mean arterial blood pressure by 39 mm Hg. After the responsiveness of a given rat to angiotensin I was established, the named compound at 17 μmol/kg (drug dissolved in 0.15 ml of H2 O plus 10 μl of 1N NaHCO3), was given via a stomach tube. At timed intervals, the effects of 400 ng/kg of angiotensin I on mean arterial blood pressure were tested. Results are shown below:
Rats (190-290 g body weight) were fasted overnight and then anesthetized with intraperitoneal pentobarbital, 50-60 mg/kg. Tracheostomy was performed and the animals were ventilated mechanically. A cannula was inserted into a femoral vein for injection of angtiotensin I, and a second cannula was inserted into a common carotid artery for direct measurement of arterial blood pressure. […]

## C[C@H](CSC(=O)[C@@H](N)Cc1ccccc1)C(=O)N1CCC[C@H]1C(=O)O [N-alpha-(3-L-phenylalanylthio-2-D-methylpropanoyl)-L-proline]
Oral 20 μmol/kg, 6 min, Ex. 237
  Blood Pressure Response to 400 ng/kg of Angiotensin I: 77 % of Control
Oral 20 μmol/kg, 10 min, Ex. 237
  Blood Pressure Response to 400 ng/kg of Angiotensin I: 69 % of Control
Oral 20 μmol/kg, 19 min, Ex. 237
  Blood Pressure Response to 400 ng/kg of Angiotensin I: 46 % of Control
Oral 20 μmol/kg, 25 min, Ex. 237
  Blood Pressure Response to 400 ng/kg of Angiotensin I: 38 % of Control
Oral 20 μmol/kg, 29 min, Ex. 237
  Blood Pressure Response to 400 ng/kg of Angiotensin I: 38 % of Control
Oral 20 μmol/kg, 38 min, Ex. 237
  Blood Pressure Response to 400 ng/kg of Angiotensin I: 33 % of Control
Oral 20 μmol/kg, 50 min, Ex. 237
  Blood Pressure Response to 400 ng/kg of Angiotensin I: 33 % of Control
Oral 20 μmol/kg, 57 min, Ex. 237
  Blood Pressure Response to 400 ng/kg of Angiotensin I: 31 % of Control
Oral 20 μmol/kg, 65 min, Ex. 237
  Blood Pressure Response to 400 ng/kg of Angiotensin I: 31 % of Control
Oral 20 μmol/kg, 74 min, Ex. 237
  Blood Pressure Response to 400 ng/kg of Angiotensin I: 26 % of Control
Oral 20 μmol/kg, 88 min, Ex. 237
  Blood Pressure Response to 400 ng/kg of Angiotensin I: 36 % of Control

## CC(=O)N[C@@H](Cc1ccccc1)C(=O)SC[C@@H](C)C(=O)N1CCC[C@H]1C(=O)O [N-alpha-[3-(N-alpha-acetyl-L-phenylalanylthio)-2-D-methylpropanoyl]-L-proline]
Oral 13.6 μmole/kg, 3 min, Ex. 235
  Blood Pressure Response to 400 ng/kg of Angiotensin I: 40 % of Control
Oral 13.6 μmole/kg, 7 min, Ex. 235
  Blood Pressure Response to 400 ng/kg of Angiotensin I: 40 % of Control
Oral 13.6 μmole/kg, 13 min, Ex. 235
  Blood Pressure Response to 400 ng/kg of Angiotensin I: 28 % of Control
Oral 13.6 μmole/kg, 18 min, Ex. 235
  Blood Pressure Response to 400 ng/kg of Angiotensin I: 24 % of Control
Oral 13.6 μmole/kg, 23 min, Ex. 235
  Blood Pressure Response to 400 ng/kg of Angiotensin I: 20 % of Control
Oral 13.6 μmole/kg, 31 min, Ex. 235
  Blood Pressure Response to 400 ng/kg of Angiotensin I: 18 % of Control
Oral 13.6 μmole/kg, 34 min, Ex. 235
  Blood Pressure Response to 400 ng/kg of Angiotensin I: 20 % of Control
Oral 13.6 μmole/kg, 42 min, Ex. 235
  Blood Pressure Response to 400 ng/kg of Angiotensin I: 20 % of Control
Oral 13.6 μmole/kg, 48 min, Ex. 235
  Blood Pressure Response to 400 ng/kg of Angiotensin I: 16 % of Control
Oral 13.6 μmole/kg, 58 min, Ex. 235
  Blood Pressure Response to 400 ng/kg of Angiotensin I: 16 % of Control
Oral 13.6 μmole/kg, 67 min, Ex. 235
  Blood Pressure Response to 400 ng/kg of Angiotensin I: 20 % of Control
Oral 13.6 μmole/kg, 80 min, Ex. 235
  Blood Pressure Response to 400 ng/kg of Angiotensin I: 20 % of Control
Oral 13.6 μmole/kg, 90 min, Ex. 235
  Blood Pressure Response to 400 ng/kg of Angiotensin I: 18 % of Control
Oral 13.6 μmole/kg, 100 min, Ex. 235
  Blood Pressure Response to 400 ng/kg of Angiotensin I: 16 % of Control
Oral 13.6 μmole/kg, 112 min, Ex. 235
  Blood Pressure Response to 400 ng/kg of Angiotensin I: 20 % of Control
Oral 13.6 μmole/kg, 125 min, Ex. 235
  Blood Pressure Response to 400 ng/kg of Angiotensin I: 20 % of Control
Oral 13.6 μmole/kg, 137 min, Ex. 235
  Blood Pressure Response to 400 ng/kg of Angiotensin I: 30 % of Control
Oral 13.6 μmole/kg, 167 min, Ex. 235
  Blood Pressure Response to 400 ng/kg of Angiotensin I: 50 % of Control

## C[C@H](CSC(=O)[C@H](Cc1ccccc1)NC(=O)C1CCCC1)C(=O)N1CCC[C@H]1C(=O)O [N-alpha-[3-(N-alpha-cyclopentylcarbonyl-L-phenylalanylthio)-2-D-methylpropanoyl]-L-proline]
Oral 23 μmole/kg, 2 min, Ex. 231
  Blood Pressure Response to 400 ng/kg of Angiotensin I: 71 % of Control
Oral 23 μmole/kg, 6 min, Ex. 231
  Blood Pressure Response to 400 ng/kg of Angiotensin I: 63 % of Control
Oral 23 μmole/kg, 16 min, Ex. 231
  Blood Pressure Response to 400 ng/kg of Angiotensin I: 49 % of Control
Oral 23 μmole/kg, 23 min, Ex. 231
  Blood Pressure Response to 400 ng/kg of Angiotensin I: 43 % of Control
Oral 23 μmole/kg, 37 min, Ex. 231
  Blood Pressure Response to 400 ng/kg of Angiotensin I: 43 % of Control
Oral 23 μmole/kg, 48 min, Ex. 231
  Blood Pressure Response to 400 ng/kg of Angiotensin I: 40 % of Control
Oral 23 μmole/kg, 64 min, Ex. 231
  Blood Pressure Response to 400 ng/kg of Angiotensin I: 26 % of Control
Oral 23 μmole/kg, 71 min, Ex. 231
  Blood Pressure Response to 400 ng/kg of Angiotensin I: 26 % of Control
Oral 23 μmole/kg, 84 min, Ex. 231
  Blood Pressure Response to 400 ng/kg of Angiotensin I: 37 % of Control
Oral 23 μmole/kg, 96 min, Ex. 231
  Blood Pressure Response to 400 ng/kg of Angiotensin I: 37 % of Control
Oral 23 μmole/kg, 109 min, Ex. 231
  Blood Pressure Response to 400 ng/kg of Angiotensin I: 40 % of Control
Oral 23 μmole/kg, 124 min, Ex. 231
  Blood Pressure Response to 400 ng/kg of Angiotensin I: 54 % of Control
Oral 23 μmole/kg, 140 min, Ex. 231
  Blood Pressure Response to 400 ng/kg of Angiotensin I: 51 % of Control
Oral 23 μmole/kg, 157 min, Ex. 231
  Blood Pressure Response to 400 ng/kg of Angiotensin I: 63 % of Control
Oral 23 μmole/kg, 171 min, Ex. 231
  Blood Pressure Response to 400 ng/kg of Angiotensin I: 77 % of Control

## C[C@H](CSC(=O)C(Cc1ccccc1)NC(=O)c1ccccc1)C(=O)N1CCC[C@H]1C(=O)O (stereo partly drawn) [sodium salt of N-alpha[3-(N-alpha-benzoyl-D,L-phenylalanylthio)-2-D-methylpropanoyl]-L-proline]
5 min, 5 min
  response vs control in vivo at 10 µmol/kg: 82%
10 min, 10 min
  response vs control in vivo at 10 µmol/kg: 33%
0.25 h, 15 min
  response vs control in vivo at 10 µmol/kg: 24%
20 min, 20 min
  response vs control in vivo at 10 µmol/kg: 27%
0.5 h, 30 min
  response vs control in vivo at 10 µmol/kg: 27%
40 min, 40 min
  response vs control in vivo at 10 µmol/kg: 22%
50 min, 50 min
  response vs control in vivo at 10 µmol/kg: 24%
1 h, 60 min
  response vs control in vivo at 10 µmol/kg: 27%
1.5 h, 90 min
  response vs control in vivo at 10 µmol/kg: 36%
2 h, 120 min
  response vs control in vivo at 10 µmol/kg: 44%
2.5 h, 150 min
  response vs control in vivo at 10 µmol/kg: 62%
3 h, 180 min
  response vs control in vivo at 10 µmol/kg: 60%
3.5 h, 210 min
  response vs control in vivo at 10 µmol/kg: 71%
4 h, 240 min
  response vs control in vivo at 10 µmol/kg: 73%
